One data set relates to obese female Zucker rats. Briefly: Daily oral gavage in obese female Zucker rats: serum nonHDL cholesterol, HDL cholesterol, triglycerides, glycemic control indicators, body weight. It counts as in vivo, rat (Zucker fatty Crl:(Zuc)-faBR). The conditions noted are these: Rattus norvegicus, 100 mg/kg daily oral gavage. The procedure: Ten- to twelve-week old (400-500 grams) female Zucker fatty rats Crl: (Zuc)-faBR were obtained from Charles River Laboratories. Animals were acclimated to the laboratory environment for seven days. During the acclimation and study period, animals were housed by group in shoebox polycarbonate cages on Cellu-Dri bedding. The temperature and humidity in the animals' quarters (68-78° F.; 30-75% RH) were monitored and the airflow in the room was sufficient to provide several exchanges per hour with 100% fresh filtered air. An automatic timing device provided an alternating 12-hour cycle of light and dark. Rats received pelleted Purina Laboratory Rodent Chow® (5001) prior to and during the drug intervention period except for a 6-hour phase prior to blood sampling. Fresh water was supplied ad libitum via an automatic watering system. Compounds were dissolved, suspended by mixing in a dosing vehicle consisting of 1.5% carboxymethylcellulose/0.2% Tween 20 or 20% ethanol and 80% polyethylene glycol-200 [v/v]. Dose volume of vehicle or vehicle plus each compound was set at 0.25% of body weight in order to deliver the appropriate dose. Doses were administered daily by oral gavage, approximately between 8-10 AM. Regarding blood sampling, animals were fasted for 6 hours prior to all blood collections. Prior to and after 7 days of dosing, a 1.0- to 2.0-mL sample of blood was collected by administering O2/CO2 anesthesia and bleeding from the orbital venous plexus. Following 14 days of dosing, blood was collected by cardiac puncture after euthanasia with CO2. All blood samples were processed for separation of serum and stored at −80° C. until analysis. Commercially available kits were used to determine serum triglycerides (Roche Diagnostic Corporation, Kit No. 148899 or Boehringer Mannheim, Kit No. 1488872), total cholesterol (Roche Diagnostic Corporation, Kit No. 450061), non-esterified fatty acids (Wako Chemicals, Kit No. 994-75409) and β-hydroxybutyrate (Wako Chemicals, Kit No. 417-73501 or Sigma Kit. No. 310-0) on a Hitachi 912 Automatic Analyzer (Roche Diagnostic Corporation). In some instances, an in-house cholesterol reagent was used to determine total serum cholesterol levels. Serum lipoprotein cholesterol levels were determined by lipoprotein profile analysis. Lipoprotein profiles were analyzed using gel-filtration chromatography on a Superose 6HR (1×30 cm) column equipped with on-line detection of total cholesterol as described by Kieft et al (Kieft, K. A.; Bocan, T. M.; Krause, B. R. Rapid on-line determination of cholesterol distribution among plasma lipoproteins after high-performance gel filtration chromatography. J. Lipid Res. 1991, 32, 859-866.). The total cholesterol content of each lipoprotein was calculated by multiplying the independent values determined for serum total cholesterol by the percent area of each lipoprotein in the profile. The percent body weight gain and the ratio of liver to body weight is also determined. Selected data are shown as absolute values or as a percent change of the pretreatment values in Tables 8 and 9.
Select compounds (214c, 210c, and 210g) were further evaluated in the Zucker rat by performing a full dose response and measuring additional serum variables including markers for diabetes (Tables 10-12).

The subject of data set [1] is Lipid Synthesis in Primary Rat Hepatocytes. Briefly: Inhibition of lipid synthesis ([1-14C]-acetate incorporation) in primary cultures of rat hepatocytes. The class given is cell-based, rat (Sprague-Dawley). The conditions noted are these: Hepatocyte, 4 h, 4 h incubation with [1-14C]-acetate, 0-300 μM compound, Table 7, ranges where confidence of estimate is insufficient to assign a value. The procedure: Compounds were tested for inhibition of lipid synthesis in primary cultures of rat hepatocytes. […] Sprague-Dawley rats were anesthetized with intraperitoneal injection of sodium pentobarbital (80 mg/kg). Rat hepatocytes were isolated essentially as described by the method of Seglen (Seglen, P. O. Hepatocyte suspensions and cultures as tools in experimental carcinogenesis. J. Toxicol. Environ. Health 1979, 5, 551-560). Hepatocytes were suspended in Dulbecco's Modified Eagles Medium containing 25 mM D-glucose, 14 mM HEPES, 5 mM L-glutamine, 5 mM leucine, 5 mM alanine, 10 mM lactate, 1 mM pyruvate, 0.2% bovine serum albumin, 17.4 mM non-essential amino acids, 20% fetal bovine serum, 100 nM insulin and 20 μg/mL gentamycin) and plated at a density of 1.5×10^5 cells/cm^2 on collagen-coated 96-well plates. Four hours after plating, media was replaced with the same media without serum. […] Lipid synthesis incubation conditions were initially assessed to ensure the linearity of [1-^14C]-acetate incorporation into hepatocyte lipids for up to 4 hours. Hepatocyte lipid synthesis inhibitory activity was assessed during incubations in the presence of 0.25 μCi [1-^14C]-acetate/well (final radiospecific activity in assay is 1 Ci/mol) and 0, 1, 3, 10, 30, 100 or 300 μM of compounds for 4 hours. […] Lipid radioactivity was assessed by scintillation spectroscopy in a Packard TopCount NXT.

Where [2] appears, read: 168 h, 1 wk, Table 9, read-out: HDL-Cholesterol, Percent Change from Pre-Treatment, 1 wk.

Each structure is given as a SMILES string. Read-outs that look alike come from different tables or passages of the source.

`CC(C)(CCCCCC(=O)CCCCCC(C)(C)C(=O)O)C(=O)O`: in the data set on obese female Zucker rats (setting [2]), the change in vivo at 100 mg/kg amounted to 70%. Usually melting point stands for the temperature of the solid-liquid transition. For the molecule `O=C(CCCCC1(C(=O)O)CCCC1)CCCCC1(C(=O)O)CCCC1` [Compound 107g, 1-[9-(1-Carboxycyclopentyl)-5-oxononyl]-1-cyclopentanecarboxylic acid], the melting point lay within 99 to 103 °C. In the case of `O=C(CCCCCC1(C(=O)O)CC1)CCCCCC1(C(=O)O)CC1` [Compound 107l, 1-[11-(1-Carboxycyclopropyl)-6-oxoundecyl]-1-cyclopropanecarboxylic acid], the melting point was in the range of 122 to 123 °C. Still for that read-out and setting: with `O=C(CCCCCC1(C(=O)O)CCCC1)CCCCCC1(C(=O)O)CCCC1` [Compound 107m, 1-[11-(1-Carboxycyclopentyl)-6-oxoundecyl]-1-cyclopentanecarboxylic acid] the figure was 78 to 85 °C. Molecule `CC(C)(CCCCCCCC(=O)CCCCCCCC(C)(C)C(=O)O)C(=O)O` [Compound 107n, 10-Oxo-2,2,18,18-tetramethyl-nonadecanedioic acid] displayed a melting point of 74 to 77 °C. As usually defined, the IC50 is the concentration at which inhibition is half-maximal. In the case of `CC(C)(CCCCCCCC(=O)CCCCCCCC(C)(C)C(=O)O)C(=O)O` [drawing 538], the half-maximal inhibitory concentration (IC50) in data set [1] is 5 µM. On to `CC(C)(CCCCCCCC(=O)CCCCCCCC(C)(C)C(=O)O)C(=O)O` [drawing 559], for which the change in vivo at 100 mg/kg with obese female Zucker rats (setting [2]) was 44%; with obese female Zucker rats (168 h, 1 wk, Table 9, read-out: NonHDL-Cholesterol, Percent Change from Pre-Treatment, 1 wk) it was -80%; with obese female Zucker rats (168 h, 1 wk, Table 9, read-out: TG, Percent Change from Pre-Treatment, 1 wk), -85%; in the data set on obese female Zucker rats (336 h, 2 wk, Table 9, read-out: HDL-Cholesterol, Percent Change from Pre-Treatment, 2 wk), 86%; in the data set on obese female Zucker rats (336 h, 2 wk, Table 9, read-out: NonHDL-Cholesterol, Percent Change from Pre-Treatment, 2 wk), -46%; in the data set with obese female Zucker rats (336 h, 2 wk, Table 9, read-out: TG, Percent Change from Pre-Treatment, 2 wk), -63%.

(Values after patent US8642653B2, “Ketone compounds and compositions for cholesterol management and related uses” (Esperion Therapeutics, Inc., priority 2003, dated 2014).)
